Values after ≈ are worked out from the molar mass of the structure shown.

Experimental findings from article PMC12598805, “Crystal Structure–Activity Relationship of Some MeO Phenylacrylonitriles: Dual Antimicrobial–Cytotoxic Effects and in Silico Perspectives” (ChemistryOpen, 2025) are described below.

Holding throughout (format): cell-based
The subject of data set [1] is Escherichia coli (ATCC 25922). Put plainly: MBC by sub-culture from wells without growth. As to conditions: ATCC25922, E.coli. The protocol: Escherichia coli (ATCC 25922) […]
ATCC: American Type Culture Collection; NRRL: Northern Regional Research Laboratory The compounds 2(a-c) obtained could only be completely solubilised with dimethyl sulphoxide (DMSO) and the highest possible stock solutions of 50 mg.mL-1 were prepared. […]
3.1. Determination of Minimum Inhibition Concentration (MIC)
The minimum inhibition concentration (MIC) values of the compounds 2(a-c) against the test bacteria used in the study were determined according to the broth microdilution method.[1-2] MHB or SDB was used as test medium and bacterial and yeast suspensions were prepared at 0.5 Mc Farland concentration for each test bacteria. Double layer serial dilutions were prepared in "U" type 96-well microtiter plates. Medium+bacteria suspensions containing only medium in the first row, medium+bacteria in the second row and the final concentrations of the synthesised substances in the other rows between 25 mg.mL-1 and […] were added to the wells with a final volume of 200
μL. Ampicillin, Kanamycin and Amphotericin B standard antibiotics were used as positive controls.
Bacteria were incubated at 37±0.1 °C and C. albicans at 30±0.1 °C for 24-48 hours and the lowest concentration without growth was determined as MIC. Tests were performed in two parallel runs and mean values were given as a result. […]

Data set [2] relates to mouse fibroblast cells (L929, CCL‐1). The data set can be described thus: Cytotoxicity on healthy cells, CCK8 cell viability. An excerpt: We investigated the cytotoxic effects of acrylonitrile derivatives 2(a–c) on human lung carcinoma (A549, CCL‐185) cells purchased from American Culture Collection and human breast carcinoma (MCF‐7) cells purchased from Republic of Turkey Ministry of Agriculture and Forestry Şap Institute, (HUKUK, 00092502), In addition, mouse fibroblast cells (L929, CCL‐1) purchased from American Culture Collection were used to observe the effects of the compounds on healthy cells. In 25 T Flask, A549 cells were grown in dulbecco's modified eagle's medium, MCF‐7, and L929 cells were grown in eagle's minimum essential medium (EMEM), 10% fetal bovine serum and 1% Penicillin‐Streptomycin at 37 °C in a 5% CO2 and 100% humidified incubator. Cell proliferation was checked every day. Cells were taken into the experiment when the cell density reached 70% to 80%. (See Supporting Information for experimental preparation of biological studies).
The compounds 2a, 2b, and 2c were dissolved in 99.8% Dimethyl sulfoxide (DMSO) respectively, as
10 mM main stock. To prepare the doses of acrylonitrile compounds used in the experiment to be
applied to the cells, five different concentrations of 31.25; 62.5; 125; 250 and 500 μM were prepared
by diluting the main stock solutions (10 mM) with the medium selected according to the cells. 5-
Fluorouracil (5-FU) was selected as a positive control in the study. After the 5-FU main stock solution
was dissolved with DMSO to be 10 mM, the concentrations to be used were diluted with the selected
media and made ready for the experimental plan. The concentrations used for 5-FU were prepared in
the same doses used for acrylonitrile derivatives. For the negative control group, groups containing
only media and no substance were used. Prepared acrylonitrile compounds and 5-FU concentrations
were added to the wells in three replicates for each dose, and their effects on cell viability at 24 and 48
Trypan blue solution (Gibco, 1525061) was used to distinguish between living and dead cells in the
study. Trypan blue passes uncontrollably through the membrane of dead cells that have lost their cell
membrane integrity and stains the cell blue. Living cells, on the other hand, are not stained because
Live cell counts were performed using trypan blue using a
cell counter (Logos Luna II).
In order to detach the cells adhering to the flasks from the bottom, 500 μL of 0.25% Trypsin-EDTA
(Gibco, 15400054) solution was added and treated for five minutes.
detach from the bottom under an inverted microscope (Zeiss Primovert, Germany), medium containing
10% FBS was added. After centrifugation at 300 g for 5 minutes and discarding the medium, 1 mL of
medium was added and the cells were seeded into 96-well culture dishes as 1x10^4 cells in 100 μL per
Cell Counting Kit 8 (CCK8; Medchem, 146436) was used to determine cell viability. After adding 20 μL
of CCK8 solution to each well in the dark, 96-well culture dishes were wrapped with aluminum foil and
kept in a CO2 incubator at 37 °C for 2 hr. Then, it was automatically read with a microplate reader
(Chromate) at 450 and 630 nm wavelengths. The following formula was used to determine cell
% Viability = (Sample Well−Blank) (Negative Control−Blank)×100 (1)
The half-maximal inhibitory concentration (IC50) was calculated as 50% cell death causing dose
compared to the control group. All data are given as the mean percent fraction of control ± SEM.
Statistical analysis was done by one-way analysis of variance (ANOVA), followed by Tukey’s multiple
comparison tests. IBM SPSS Statistics 22 was used to utilize statistical analysis. […]

For data set [3], the system named is Enterococcus faecalis (ATCC 29212). The data set can be described thus: Agar diffusion, zone of inhibition. As to conditions: ATCC29212, E.faecalis, compounds at 50 mg mL^−1. An excerpt: The antibacterial and antifungal activities were reported utilizing the method described by the Clinical & Laboratory Standards Institute.^[ [31], [32] ^] Agar diffusion method was used to determine the antimicrobial activity of the synthesized substances. The media used were mueller hinton agar (MHA) for bacteria and sabouraud‐dextrose agar (SDA) for fungi (Merck), as recommended by the manufacturer.
The synthesized compounds were initially investigated for their antimicrobial activity to elucidate the potential therapeutic utility against various pathogenic microbes using the agar plate diffusion method. The compounds were tested at a concentration of 50 mg mL^−1, and the antibiotics (ampicillin, kanamycin, and amphotericin B) were used at 5 mg mL^−1. […] K.pneumoniae and B.cereus were resistant to ampicillin, while they were susceptible to kanamycin with inhibition values of 30 and 26 mm, respectively. No antimicrobial activity of the compounds was observed against E.faecalis, S.typhimurium, K.pneumoniae, and for the fungus compared to Amphotericin B (20 mm). […]
Enterococcus faecalis (ATCC 29212) […]
ATCC: American Type Culture Collection; NRRL: Northern Regional Research Laboratory The compounds 2(a-c) obtained could only be completely solubilised with dimethyl sulphoxide (DMSO) and the highest possible stock solutions of 50 mg.mL-1 were prepared. To these wells 50 μl of the previously prepared substances were transferred using sterile micropipette tips. For comparison, Ampicillin and kanamycin antibiotics for bacteria and Amphotericin B antibiotics for fungus were used as positive controls and DMSO was used as negative control. The prepared petri plates were kept at +4°C for about 1 hour and then the bacterial cultures were incubated at 37°C for 18-24 hours and mould cultures at 27-30°C for 48-72 hours. The zones formed were measured millimetrically with callipers. The experiments were performed with three repetitions. […]

Broadly, the MBC is the smallest concentration meeting the test's criterion for killing. High values mean weaker bactericidal potency, low ones greater bactericidal potency. As usually defined, the zone of inhibition is the extent of the growth-free halo in a diffusion test. The low end stands for a weaker effect on the plate, the high end for a stronger effect on the plate. `COc1ccc(C=C(C#N)c2ccccc2)cc1` [2a, 3‐(4‐methoxyphenyl)‐2‐phenylacrylonitrile] registered an MBC in data set [1] of 5000 µg/mL (≈ 21.3 mM). The “decrease in cell viability” value was determined as 13% in data set [2] (L929, 24 h, 31.25 μM); 19% in data set [2] (L929, 24 h, 62.5 μM); 16% in data set [2] (L929, 24 h, 125 μM); 35% in data set [2] (L929, 24 h, 250 μM); 73% in data set [2] (L929, 24 h, 500 μM); 52% in data set [2] (L929, 48 h, 31.25 μM). Further, the “decrease in cell viability” value in data set [2] (L929, 48 h, 62.5 μM) was 53%; in data set [2] (L929, 48 h, 125 μM), 55%; in data set [2] (L929, 48 h, 250 μM), 54%; in data set [2] (L929, 48 h, 500 μM), 87%. In addition, the zone of inhibition at 50 mg/mL in data set [3] is < 6 mm.
As a reminder, the IC50 is the concentration at which inhibition is half-maximal. Take `COc1ccc(/C=C(\C#N)c2ccc(F)cc2)cc1` [2b]: the “decrease in cell viability” value in data set [2] (L929, 24 h, 31.25 μM) came out at 45%; in data set [2] (L929, 24 h, 62.5 μM), 44%; in data set [2] (L929, 24 h, 125 μM), 43%; in data set [2] (L929, 24 h, 250 μM), 50%; in data set [2] (L929, 24 h, 500 μM), 75%; in data set [2] (L929, 48 h, 31.25 μM) it was 52%. The “decrease in cell viability” value was determined as 54% in data set [2] (L929, 48 h, 62.5 μM); 53% in data set [2] (L929, 48 h, 125 μM); 53% in data set [2] (L929, 48 h, 250 μM); 80% in data set [2] (L929, 48 h, 500 μM). Moreover, in data set [2] (L929, 24 h, read-out: Cytotoxic activity IC50), the IC50 was 250 µM. Also, the zone of inhibition at 50 mg/mL in data set [3] is < 6 mm.
Take `COc1ccc(/C=C(\C#N)c2cc(C(F)(F)F)cc(C(F)(F)F)c2)cc1` [2c]: the “decrease in cell viability” value in data set [2] (L929, 24 h, 31.25 μM) turned out to be 8%; in data set [2] (L929, 24 h, 62.5 μM) it was 10%; in data set [2] (L929, 24 h, 125 μM), 19%; in data set [2] (L929, 24 h, 250 μM) it was 12%; in data set [2] (L929, 24 h, 500 μM), 71%; in data set [2] (L929, 48 h, 31.25 μM), 14%. For the same molecule, the “decrease in cell viability” value in data set [2] (L929, 48 h, 62.5 μM) was 16%; in data set [2] (L929, 48 h, 125 μM), 20%; in data set [2] (L929, 48 h, 250 μM), 24%; in data set [2] (L929, 48 h, 500 μM) it was 80%. In addition, the zone of inhibition at 50 mg/mL in data set [3] is < 6 mm.
